The values that follow come from patent US20230073777A1, “CYCLIC-AMP RESPONSE ELEMENT BINDING PROTEIN (CBP) AND/OR ADENOVIRAL E1A BINDING PROTEIN OF 300 KDA (P300) DEGRADATION COMPOUNDS AND METHODS OF USE” (CULLGEN (SHANGHAI), INC., priority 2019, published 2023).

For one experiment, the system named is LNCaP cells. The experiment can be described thus: LNCaP cell viability assay (CellTiter-Glo). It counts as cell-based. The following applies: Homo sapiens, 72 h; LNCaP prostate cancer cell viability inhibition, 3 days, CellTiter-Glo (Table 3). In outline: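 LNCaP cells, 5000/well, exposed to compounds in 12-point 3-fold serial dilution (top 10 μM) for 3 days. Viability by CellTiter-Glo luminescence, normalized to untreated cells; IC50 by least-squares nonlinear regression.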

The next experiment has as its target P300 (Homo sapiens, UniProt Q09472). The experiment can be described thus: Immunoblotting of P300 protein levels in LNCaP or 22RV1 cells. It counts as cell-based. Details: LNCaP or 22RV1 cells that express CBP/P300 proteins were treated with GNE-781 or the bivalent compounds; endogenous in cells; host or cells: LNCaP (clone FGC) or 22RV1 cells. The following applies: percentage of inhibition of p300 at 10 nM (Table 3); read-out: Degradation (10 nM). In outline:
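LNCaP or 22RV1 cells treated with compounds for indicated hours, DMSO as negative control. RIPA lysates resolved by SDS-PAGE and immunoblotted for P300 or CBP, tubulin or vinculin as loading control; chemiluminescent bands quantitated.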

A word on the IC50: it is the midpoint of a concentration-inhibition curve. A lower IC50 goes with inhibition by little substance.

Sequence of P300 (Q09472 whole entry): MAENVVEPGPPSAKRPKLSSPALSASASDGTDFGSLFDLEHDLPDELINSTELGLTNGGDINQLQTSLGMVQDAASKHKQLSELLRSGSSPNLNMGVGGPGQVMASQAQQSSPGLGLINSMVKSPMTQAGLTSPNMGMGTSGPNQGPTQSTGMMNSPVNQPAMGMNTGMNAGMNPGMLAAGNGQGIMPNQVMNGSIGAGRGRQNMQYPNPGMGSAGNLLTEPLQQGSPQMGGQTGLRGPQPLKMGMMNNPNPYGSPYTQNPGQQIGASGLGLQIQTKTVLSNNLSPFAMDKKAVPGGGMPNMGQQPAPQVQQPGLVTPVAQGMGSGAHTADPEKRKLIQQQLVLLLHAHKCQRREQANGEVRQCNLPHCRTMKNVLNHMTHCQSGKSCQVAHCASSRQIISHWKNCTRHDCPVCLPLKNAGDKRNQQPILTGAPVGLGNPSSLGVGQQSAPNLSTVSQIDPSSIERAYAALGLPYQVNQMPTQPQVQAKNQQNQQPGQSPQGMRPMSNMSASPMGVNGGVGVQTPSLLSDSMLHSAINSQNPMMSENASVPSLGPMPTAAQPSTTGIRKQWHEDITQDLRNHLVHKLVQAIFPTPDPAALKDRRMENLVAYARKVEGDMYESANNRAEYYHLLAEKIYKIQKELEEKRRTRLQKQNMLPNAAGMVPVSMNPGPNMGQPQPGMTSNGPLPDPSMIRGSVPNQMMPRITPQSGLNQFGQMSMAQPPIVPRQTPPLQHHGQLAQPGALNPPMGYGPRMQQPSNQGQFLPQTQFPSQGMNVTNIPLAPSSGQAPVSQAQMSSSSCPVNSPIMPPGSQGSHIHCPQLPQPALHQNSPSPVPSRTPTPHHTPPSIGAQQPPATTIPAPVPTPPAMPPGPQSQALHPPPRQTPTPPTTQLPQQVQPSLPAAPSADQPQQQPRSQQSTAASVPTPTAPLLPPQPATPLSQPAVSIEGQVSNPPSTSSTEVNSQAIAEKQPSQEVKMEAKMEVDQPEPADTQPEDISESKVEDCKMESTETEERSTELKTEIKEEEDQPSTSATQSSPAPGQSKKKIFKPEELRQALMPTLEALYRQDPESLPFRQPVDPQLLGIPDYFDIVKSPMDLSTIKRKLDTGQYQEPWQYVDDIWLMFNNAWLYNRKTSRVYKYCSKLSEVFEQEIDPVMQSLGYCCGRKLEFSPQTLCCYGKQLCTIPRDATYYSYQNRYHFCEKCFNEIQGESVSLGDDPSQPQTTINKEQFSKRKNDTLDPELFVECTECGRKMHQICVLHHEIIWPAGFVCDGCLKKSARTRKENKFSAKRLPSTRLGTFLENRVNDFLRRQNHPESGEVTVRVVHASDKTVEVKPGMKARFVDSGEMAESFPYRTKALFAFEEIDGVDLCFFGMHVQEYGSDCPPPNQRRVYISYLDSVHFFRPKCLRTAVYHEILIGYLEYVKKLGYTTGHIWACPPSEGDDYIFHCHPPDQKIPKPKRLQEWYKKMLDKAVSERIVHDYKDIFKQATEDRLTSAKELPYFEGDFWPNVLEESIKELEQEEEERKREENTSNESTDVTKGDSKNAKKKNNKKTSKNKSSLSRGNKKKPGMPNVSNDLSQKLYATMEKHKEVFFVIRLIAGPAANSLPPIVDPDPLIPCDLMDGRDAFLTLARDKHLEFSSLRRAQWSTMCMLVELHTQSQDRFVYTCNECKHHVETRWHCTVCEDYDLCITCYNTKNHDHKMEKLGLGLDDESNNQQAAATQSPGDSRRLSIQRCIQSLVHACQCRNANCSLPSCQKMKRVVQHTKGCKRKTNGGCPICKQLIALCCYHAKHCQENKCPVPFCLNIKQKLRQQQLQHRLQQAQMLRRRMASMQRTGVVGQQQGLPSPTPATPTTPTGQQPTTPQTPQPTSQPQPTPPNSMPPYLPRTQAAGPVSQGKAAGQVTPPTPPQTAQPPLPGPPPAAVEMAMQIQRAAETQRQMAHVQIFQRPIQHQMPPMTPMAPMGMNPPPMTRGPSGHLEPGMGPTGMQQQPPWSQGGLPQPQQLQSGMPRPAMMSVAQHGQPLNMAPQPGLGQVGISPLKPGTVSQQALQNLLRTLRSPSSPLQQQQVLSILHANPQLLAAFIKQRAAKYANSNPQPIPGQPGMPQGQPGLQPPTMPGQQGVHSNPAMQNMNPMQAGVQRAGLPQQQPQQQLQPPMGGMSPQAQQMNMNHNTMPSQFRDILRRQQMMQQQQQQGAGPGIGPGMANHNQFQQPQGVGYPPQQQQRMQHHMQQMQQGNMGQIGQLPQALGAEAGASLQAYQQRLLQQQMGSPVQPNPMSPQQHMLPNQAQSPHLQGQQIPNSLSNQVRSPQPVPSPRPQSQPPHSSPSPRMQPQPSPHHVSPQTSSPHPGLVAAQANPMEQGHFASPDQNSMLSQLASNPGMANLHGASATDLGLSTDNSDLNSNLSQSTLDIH

For the molecule `CC(=O)N1CCc2c(c(N3CCCc4cc(-c5cnn(C)c5)c(C(F)F)cc43)nn2C2CCN(CCCCCCOc3cccc4c3C(=O)N(C3CCC(=O)NC3=O)C4=O)CC2)C1` (stereo not drawn) [P-113, 4-((6-(4-(5-acetyl-3-(7-(difluoromethyl)-6-(1-methyl-1H-pyrazol-4-yl)-3,4-dihydroquinolin-1(2H)-yl)-4,5,6,7-tetrahydro-1H-pyrazolo[4,3-c]pyridin-1-yl)piperidin-1-yl)hexyl)oxy)-2-(2,6-dioxopiperidin-3-yl)isoindoline-1,3-dione], the concentration for half-maximal inhibition (IC50) with LNCaP cells turned out to be 14.8 nM. For the same molecule, the inhibition at 0.01 µM at P300 is above 80%.
Taken in the same sequence, the figures for `CNC(=O)N1CCc2c(c(N3CCCc4cc(-c5cnn(C)c5)c(C(F)F)cc43)nn2C2CCN(C(=O)CCCCCCc3cccc4c3C(=O)N(C3CCC(=O)NC3=O)C4=O)CC2)C1` (stereo not drawn) [P-085, 3-(7-(difluoromethyl)-6-(1-methyl-1H-pyrazol-4-yl)-3,4-dihydroquinolin-1(2H)-yl)-1-(1-(7-(2-(2,6-dioxopiperidin-3-yl)-1,3-dioxoisoindolin-4-yl)heptanoyl)piperidin-4-yl)-N-methyl-1,4,6,7-tetrahydro-5H-pyrazolo[4,3-c]pyridine-5-carboxamide] were 3.8 nM and above 80%.
`CC(=O)N1CCc2c(c(N3CCCc4cc(-c5cnn(C)c5)c(C(F)F)cc43)nn2C2CCN(C(=O)CCCCCCCCNc3cccc4c3n(C)c(=O)n4C3CCC(=O)NC3=O)CC2)C1` (stereo not drawn) [P-160, 3-(4-((9-(4-(5-acetyl-3-(7-(difluoromethyl)-6-(1-methyl-1H-pyrazol-4-yl)-3,4-dihydroquinolin-1(2H)-yl)-4,5,6,7-tetrahydro-1H-pyrazolo[4,3-c]pyridin-1-yl)piperidin-1-yl)-9-oxononyl)amino)-3-methyl-2-oxo-2,3-dihydro-1H-benzo[d]imidazol-1-yl)piperidine-2,6-dione] came in with an IC50 with LNCaP cells of 0.2 nM. Also, at P300, the inhibition at 0.01 µM was above 80%.
With `CC(=O)N1CCc2c(c(N3CCCc4cc(-c5cnn(C)c5)c(C(F)F)cc43)nn2C2CCN(CCN3CCOC(CNc4cccc5c4C(=O)N(C4CCC(=O)NC4=O)C5=O)C3)CC2)C1` (stereo not drawn) [P-142], the IC50 in the experiment with LNCaP cells came to 0.3 nM. The inhibition at 0.01 µM on P300 was above 80%.
In the case of `CNC(=O)N1CCc2c(c(N3CCCc4cc(-c5cnn(C)c5)c(C(F)F)cc43)nn2C2CCN(C(=O)CCOCCOCCOCCOCCOCCNc3cccc4c3C(=O)N(C3CCC(=O)NC3=O)C4=O)CC2)C1` (stereo not drawn) [P-055, 3-(7-(Difluoromethyl)-6-(1-methyl-1H-pyrazol-4-yl)-3,4-dihydroquinolin-1(2H)-yl)-1-(1-(1-((2-(2,6-dioxopiperidin-3-yl)-1,3-dioxoisoindolin-4-yl)amino)-3,6,9,12,15-pentaoxaoctadecan-18-oyl)piperidin-4-yl)-N-methyl-1,4,6,7-tetrahydro-5H-pyrazolo[4,3-c]pyridine-5-carboxamide], the midpoint of inhibition in the experiment with LNCaP cells, the IC50, lay at 161 nM. For the same molecule, the inhibition at 0.01 µM at P300 is below 20%.
As for `CNC(=O)N1CCc2c(c(N3CCCc4cc(-c5cnn(C)c5)c(C(F)F)cc43)nn2C2CCN(C(=O)CN3CCC(CCc4cccc5c4C(=O)N(C4CCC(=O)NC4=O)C5=O)CC3)CC2)C1` (stereo not drawn) [P-104, 3-(7-(difluoromethyl)-6-(1-methyl-1H-pyrazol-4-yl)-3,4-dihydroquinolin-1(2H)-yl)-1-(1-(2-(4-(2-(2-(2,6-dioxopiperidin-3-yl)-1,3-dioxoisoindolin-4-yl)ethyl)piperidin-1-yl)acetyl)piperidin-4-yl)-N-methyl-1,4,6,7-tetrahydro-5H-pyrazolo[4,3-c]pyridine-5-carboxamide], the IC50 in the experiment on LNCaP cells stood at 12.1 nM. For the same molecule, the inhibition at 0.01 µM at P300 is above 80%.
